Several values for one entry are separate records, joined by “and”; a condition that tells them apart may be missing. Equal entries are not always repeated.
What was measured:
[1] = Intrinsic dissolution rate (VanKel instrument, Cary 100 photometer); type: physicochemical
Method: As measured on a VanKel instrument using a Cary 100 photometer, the intrinsic dissolution rate of Form A was determined in pH 4.5, pH 6.8 and 0.1 N HCl medium as follows:
As measured on a VanKel instrument using a Cary 100 photometer, the intrinsic dissolution rate of Form A was determined in pH 3.5, pH 4.5 and 0.1 N HCl medium as follows: […]

[2] = Hygroscopicity (water uptake); type: physicochemical
[3] = Solubility as a function of pH; type: physicochemical; conditions: above pH 3
[4] = Thermodynamic stability of Forms A and B: heating and cooling cycles, transition temperatures
[5] = Equilibration in water depending on pH / form conversion; type: physicochemical
From the text: Forms A and B are enantiotropically related. […] Form B spontaneously transforms to Form A at ambient conditions. Form A can be converted to Modification HA, or Form HA, when equilibrated in water at pH 1.

[6] = heating/cooling rate 0.5° C./min
[7] = heating/cooling rate 10° C./min
[8] = heating/cooling rate 20° C./min
[9] = heating/cooling rate 40° C./min

O=C(Nc1ccc(OC(F)(F)Cl)cc1)c1cnc(N2CC[C@@H](O)C2)c(-c2ccn[nH]2)c1 [Free Base form A]
Intrinsic DR value ([1]; Acetate buffer pH 4.5): n.a (does not dissolve)
Intrinsic DR value ([1]; HCL 0.1N): 1.8 mg/min/cm2 and 1.9 mg/min/cm2
Intrinsic DR value ([1]; pH = 6.8): n.a (does not dissolve)
water uptake ([2]; 25° C. up to 92% relative humidity): less than 0.1%
solubility [3]: rather low

Cl.O=C(Nc1ccc(OC(F)(F)Cl)cc1)c1cnc(N2CC[C@@H](O)C2)c(-c2ccn[nH]2)c1 [crystal form B of the hydrochloride salt]
form stability at ambient conditions ([4]; ambient conditions): spontaneously transforms back into Form A
transition B → A [4, 6]: 60.5 °C
transition B → A ([4]; heating/cooling rate 1° C./min): 53.8 °C
transition B → A ([4]; heating/cooling rate 5° C./min): 38.5 °C
transition B → A [4, 7]: 37.5 °C
transition B → A [4, 8]: 34.7 °C
transition B → A [4, 9]: 32.2 °C
decomposition observed ([4]; upon heating): above 240 °C

Cl.O=C(Nc1ccc(OC(F)(F)Cl)cc1)c1cnc(N2CC[C@@H](O)C2)c(-c2ccn[nH]2)c1 [form A of HCl salt]
Intrinsic DR value ([1]; Acetate buffer pH 4.5): 0.01 mg/min/cm2
Intrinsic DR value ([1]; Citrate buffer (pH 3.5)): 0.02 mg/min/cm2
Intrinsic DR value ([1]; HCL 0.01N (pH 2)): 2.25 mg/min/cm2
Intrinsic DR value ([1]; HCL 0.1N (pH 1)): 0.16 mg/min/cm2
water uptake ([2]; 25° C. up to 95% relative humidity): less than 0.4%
solubility [3]: rather low
behaviour when equilibrated in water ([5]; pH 1): converting into the trihydrate HA
behaviour when equilibrated in water ([5]; pH>3.5): prone to disproportionate
transition A → B [4, 6]: 95.1 °C
transition A → B ([4]; heating/cooling rate 1° C./min): 96.5 °C
transition A → B ([4]; heating/cooling rate 5° C./min): 100.3 °C
transition A → B [4, 7]: 102.1 °C
transition A → B [4, 8]: 104.8 °C
transition A → B [4, 9]: 103.7 °C

— patent publication US12252478B2
